Assays:
[1] = target: T1, VHL/EloB/EloC (VBC) (Homo sapiens, UniProt P40337); experiment: SPR binary binding of PROTAC to VBC-functionalized surface; settings: SPR; error SEM, N = 3; read-out: KLP (binary binding affinity between E3 ligase VHL and PROTAC)
T1 construct: VHL (54-213), ElonginB (17-112) ElonginC (1-104); made in house
Description: (§1) SPR experiments were performed on a Biacore 8 K or T200 instrument (Cytiva). […] The running buffer during immobilization was PBS with 0.005% P20. Either high-density (3000-4000 RU) or low-density (300-400 RU) VBC-functionalized surfaces were created, followed by equilibration in the running buffer for 3 h.
PROTACs (10 mM stocks in 100% DMSO) were diluted to 400 nM in a running buffer (20 mM Tris pH 7.5, 200 mM NaCl, 0.02% P20). This stock solution was then serially diluted in the running buffer containing final 2% DMSO. […] For SMARCA2 analysis, biotinylated proteins were introduced on a Series S streptavidin (SA) sensor chip at high-density (3000-4000 RU).
(§2) Raw sensorgrams were processed by performing double reference subtraction, solvent correction, and analysis was done using Biacore Insight Evaluation Software. Kinetic analysis was performed by fitting data to a 1:1 Langmuir interaction model and a steady-state affinity model was used to evaluate equilibrium binding affinity.

[2] = target: T2, VBC / SMARCA2^BD ternary complex (Homo sapiens, UniProt P40337+P51531); experiment: SPR ternary complex binding, VBC surface with preformed PROTAC/SMARCA2 bromodomain complex; settings: for Kd: SPR, VHL, PROTAC, error SEM, N = 3, read-out: KLPT (ternary complex binding affinity)
T2 construct: VHL (54-213), ElonginB (17-112) ElonginC (1-104); SMARCA2^BD 1373–1511 ∆1400–1417; His6 (N, cleaved yes); made in house
T2 sequence (P40337 54-213): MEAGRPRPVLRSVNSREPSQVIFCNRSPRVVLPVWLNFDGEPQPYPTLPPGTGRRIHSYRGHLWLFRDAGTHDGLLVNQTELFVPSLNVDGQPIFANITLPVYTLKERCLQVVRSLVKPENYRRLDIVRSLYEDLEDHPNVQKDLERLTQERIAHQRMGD
T2 sequence (P51531 other isoform, or with tags, fused parts or gaps): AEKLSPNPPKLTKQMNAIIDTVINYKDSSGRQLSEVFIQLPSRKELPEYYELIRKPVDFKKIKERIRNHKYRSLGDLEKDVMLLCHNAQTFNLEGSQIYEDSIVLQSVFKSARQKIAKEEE
T2 sequence (Q15370 1-104, further chain): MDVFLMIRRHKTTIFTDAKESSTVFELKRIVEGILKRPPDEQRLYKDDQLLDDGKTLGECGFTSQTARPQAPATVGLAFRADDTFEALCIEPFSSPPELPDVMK
T2 sequence (Q15369 17-112, further chain): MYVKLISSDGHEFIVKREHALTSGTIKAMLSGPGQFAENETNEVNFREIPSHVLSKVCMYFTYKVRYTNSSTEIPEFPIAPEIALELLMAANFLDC
Description: as §1
PROTACs (10 mM in 100% DMSO) were initially prepared at 200 nM in a running buffer (20 mM Tris pH 8.0, 250 mM NaCl, 1 mM TCEP, 0.01% P20, 0.2 mg/ml BSA) with a concentration of 2% DMSO. This solution was mixed at 1:1 ratio with a solution of 5 μM of the SMARCA2 or BRD4 bromodomain protein in the running buffer. This complex was then serially diluted in the running buffer containing 2.5 μM SMARCA2 or BRD4 and 2% DMSO (5-point five-fold serial dilution). For ternary experiments, solutions were injected sequentially in single-cycle kinetic format without regeneration (contact time 60 s, flow rate 80 μL/min, dissociation time 300 s) using a stabilization period of 60 s and syringe wash (50% DMSO) between injections onto a low-density VBC-functionalized surface.
as §2

[3] = target: T3, SMARCA2^BD (Homo sapiens, UniProt P51531); experiment: SPR binary binding of PROTAC to SMARCA2-functionalized surface; settings: 1:1 Langmuir binding model, SEM N=3 or SD N=2, read-out: KTP (binary affinity PROTAC / SMARCA2)
T3 construct: SMARCA2^BD 1373–1511 ∆1400–1417; made in house
T3 sequence (P51531 1373-1493 isoform P51531-2): as the sequence (P51531 other isoform, or with tags, fused parts or gaps) above
Description: PROTACs (10 mM stocks in 100% DMSO) were diluted to 400 nM in a running buffer (20 mM Tris pH 7.5, 200 mM NaCl, 0.02% P20). This stock solution was then serially diluted in the running buffer containing final 2% DMSO. Solutions were injected in multi-cycle kinetic format without regeneration (contact time 60 s, flow rate 80 μL/min, dissociation time 120 s) using a stabilization period of 30 s and syringe wash (50% DMSO) between injections onto a high-density VBC-functionalized surface. For SMARCA2 analysis, biotinylated proteins were introduced on a Series S streptavidin (SA) sensor chip at high-density (3000-4000 RU).
as §2

[4] = target: T4, SMARCA2 (Homo sapiens, UniProt P51531); experiment: SMARCA2 degradation time course in A375 cells (MSD); assay type: cell-based; settings: single concentration at or near maximal activity
T4 construct: endogenous in cells; host or cells: A375
T4 sequence (P51531 whole entry): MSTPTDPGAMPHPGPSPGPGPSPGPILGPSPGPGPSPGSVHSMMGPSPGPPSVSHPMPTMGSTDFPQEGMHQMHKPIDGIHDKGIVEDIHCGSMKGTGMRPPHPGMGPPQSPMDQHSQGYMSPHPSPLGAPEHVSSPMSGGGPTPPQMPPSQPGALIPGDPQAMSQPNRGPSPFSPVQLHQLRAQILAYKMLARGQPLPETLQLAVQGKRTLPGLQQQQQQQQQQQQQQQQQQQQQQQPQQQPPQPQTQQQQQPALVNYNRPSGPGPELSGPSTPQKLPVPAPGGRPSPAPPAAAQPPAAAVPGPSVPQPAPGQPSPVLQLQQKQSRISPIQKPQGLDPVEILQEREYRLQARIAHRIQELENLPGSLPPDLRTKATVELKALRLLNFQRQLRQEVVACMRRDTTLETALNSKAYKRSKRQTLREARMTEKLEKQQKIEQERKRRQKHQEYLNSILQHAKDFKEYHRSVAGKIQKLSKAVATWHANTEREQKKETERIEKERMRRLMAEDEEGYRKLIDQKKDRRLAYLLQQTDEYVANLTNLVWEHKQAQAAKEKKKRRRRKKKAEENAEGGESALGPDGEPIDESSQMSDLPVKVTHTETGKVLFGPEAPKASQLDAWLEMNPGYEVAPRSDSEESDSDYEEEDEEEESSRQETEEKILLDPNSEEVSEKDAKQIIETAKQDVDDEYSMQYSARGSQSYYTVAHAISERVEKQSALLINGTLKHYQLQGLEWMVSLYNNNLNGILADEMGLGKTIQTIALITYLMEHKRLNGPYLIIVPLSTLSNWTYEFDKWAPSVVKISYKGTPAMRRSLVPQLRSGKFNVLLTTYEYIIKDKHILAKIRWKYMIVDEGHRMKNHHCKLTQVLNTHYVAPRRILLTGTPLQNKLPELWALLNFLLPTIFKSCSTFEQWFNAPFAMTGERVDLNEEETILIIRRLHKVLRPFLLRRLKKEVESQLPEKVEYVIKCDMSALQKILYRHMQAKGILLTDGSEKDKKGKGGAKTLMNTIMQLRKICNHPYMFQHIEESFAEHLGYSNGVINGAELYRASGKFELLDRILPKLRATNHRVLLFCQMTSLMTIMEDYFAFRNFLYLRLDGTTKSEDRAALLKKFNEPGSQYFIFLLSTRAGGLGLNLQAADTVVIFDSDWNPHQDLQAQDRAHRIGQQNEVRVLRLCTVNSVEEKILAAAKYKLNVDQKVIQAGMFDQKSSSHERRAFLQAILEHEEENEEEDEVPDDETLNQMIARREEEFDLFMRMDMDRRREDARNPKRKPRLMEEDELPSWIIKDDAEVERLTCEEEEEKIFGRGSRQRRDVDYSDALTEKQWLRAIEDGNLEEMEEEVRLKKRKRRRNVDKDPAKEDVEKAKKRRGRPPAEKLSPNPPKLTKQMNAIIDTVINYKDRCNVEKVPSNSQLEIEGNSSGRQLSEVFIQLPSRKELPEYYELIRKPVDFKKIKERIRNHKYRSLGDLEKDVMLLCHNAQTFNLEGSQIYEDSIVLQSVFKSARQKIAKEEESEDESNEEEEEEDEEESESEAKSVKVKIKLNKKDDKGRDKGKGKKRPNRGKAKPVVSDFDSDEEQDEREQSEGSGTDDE
From the text: This characteristic has been described as cooperativity (α > 1) and likely results from favorable PPIs present in the ternary complex. […] To measure the rate of protein degradation, we treated A375 cells with a single concentration of each PROTAC and measured the decrease in target abundance over time as shown in Figs. 4b and5b.
MSD electrochemiluminescence signals were subtracted by the average background signal from wells with lysis buffer alone. Normalized MSD values (POC) for individual compound treated wells were acquired by dividing background-subtracted assay signal by signal from vehicle control wells (cells + 0.1% DMSO) and multiplying by 100. This POC data was graphed using a nonlinear regression curve fit xy analysis and a log(inhibitor) vs response —variable slope (four parameter) model for dose response curves (Graphpad Prism 9, San Diego, CA, USA). To calculate area under the curve, all points on the curve were connected and vertical lines were drawn from each point down to y = 0, generating a series of trapezoids. The area of each trapezoid was determined using the equation A = (1/2)(h)(b1 + b2), where h = 1 (distance between points), b1 = POC of the first point and b2 = POC of the second point. The sum of all trapezoids provides an approximate area under the curve (AUC). For half-life (t1/2) determination in time course studies, a one-phase decay model was used for curve fitting and the time at which the curve crossed 50 POC was determined through interpolation (Graphpad Prism 9, San Diego, CA, USA). Additionally initial rate of degradation was determined by multiplying 100 with rate constant (τ = 0.693/t1/2).

T1 sequence (Q15369 17-112): as the sequence (Q15369 17-112, further chain) above
T1 sequence (Q15370 1-104, further chain): as the sequence (Q15370 1-104, further chain) above
T1 sequence (P40337 54-213): as the sequence (P40337 54-213) above

**Q.** How did the Kd [1] turn out when `Cc1ncsc1-c1ccc(CNC(=O)C2C[C@@H](O)CN2C(=O)C(NC(=O)C2(F)CC2)C(C)(C)C)c(OCCc2ccc(CN3CCN(c4cc(-c5ccccc5O)nnc4N)CC3)cc2)c1` (stereo in doubt) [Compound 11, (2R,4R)-N-(2-(4-((4-(3-amino-6-(2-hydroxyphenyl)pyridazin-4-yl)piperazin-1-yl)methyl)phenethoxy)-4-(4-methylthiazol-5-yl)benzyl)-1-((R)-2-(1-fluorocyclopropane-1-carboxamido)-3,3-dimethylbutanoyl)-4-hydroxypyrrolidine-2-carboxamide, reference compound] was run?
**A.** 59 ± 5 nM

**Q.** What about the “α (cooperativity, KLP/KLPT)” value [2] of the same molecule?
**A.** 0.55

**Q.** And the Kd [2]?
**A.** 108 ± 14 nM

**Q.** What about the Kd [3] of the same molecule?
**A.** 302 ± 80 nM

**Q.** And the “Initial Degradation Rate” value [4]?
**A.** 0.25 %/min

**Q.** For `Cc1ncsc1-c1ccc([C@H](C)NC(=O)[C@@H]2C[C@@H](O)CN2C(=O)[C@@H](NC(=O)c2ccnc(N3CCN(c4cc(-c5ccccc5O)nnc4N)CC3)c2)C(C)(C)C)cc1` [Compound 1, 2-(4-(3-Amino-6-(2-hydroxyphenyl)pyridazin-4-yl)piperazin-1-yl)-N-((S)-1-((2S,4R)-4-hydroxy-2-(((S)-1-(4-(4-methylthiazol-5-yl)phenyl)ethyl)carbamoyl)pyrrolidin-1-yl)-3,3-dimethyl-1-oxobutan-2-yl)isonicotinamide], which Kd [1] is on record?
**A.** 60 ± 3 nM

**Q.** And the “α (cooperativity, KLP/KLPT)” value [2]?
**A.** 12.8

**Q.** What about the Kd [2] of the same molecule?
**A.** 4.7 ± 1 nM

**Q.** What about the Kd [3] of the same molecule?
**A.** 95 ± 25.5 nM

**Q.** And the “Initial Degradation Rate” value [4]?
**A.** 1.9 %/min

**Q.** Which results are given for `Cc1ncsc1-c1ccc([C@H](C)NC(=O)[C@@H]2C[C@@H](O)CN2C(=O)[C@@H](NC(=O)c2cccc(N3CCN(c4cc(-c5ccccc5O)nnc4N)CC3)n2)C(C)(C)C)cc1` [Compound 2, 6-(4-(3-Amino-6-(2-hydroxyphenyl)pyridazin-4-yl)piperazin-1-yl)-N-((S)-1-((2S,4R)-4-hydroxy-2-(((S)-1-(4-(4-methylthiazol-5-yl)phenyl)ethyl)carbamoyl)pyrrolidin-1-yl)-3,3-dimethyl-1-oxobutan-2-yl)picolinamide]?
**A.** Kd [1]: 210 ± 18 nM; α (cooperativity, KLP/KLPT) [2]: 6.5; Kd [2]: 33 ± 4 nM; Kd [3]: 196 ± 23 nM; Initial Degradation Rate [4]: 2.02 %/min

**Q.** With `Cc1ncsc1-c1ccc([C@H](C)NC(=O)[C@@H]2C[C@@H](O)CN2C(=O)[C@@H](NC(=O)c2cccc(N3CCN(c4cc(-c5ccccc5O)nnc4N)CC3)c2)C(C)(C)C)cc1` [Compound 4, (2S,4R)-1-((S)-2-(3-(4-(3-Amino-6-(2-hydroxyphenyl)pyridazin-4-yl)piperazin-1-yl)benzamido)-3,3-dimethylbutanoyl)-4-hydroxy-N-((S)-1-(4-(4-methylthiazol-5-yl)phenyl)ethyl)pyrrolidine-2-carboxamide] as the molecule, how does the Kd [1] read?
**A.** 166 ± 15 nM

**Q.** And the “α (cooperativity, KLP/KLPT)” value [2]?
**A.** 2.6

**Q.** What about the Kd [2] of the same molecule?
**A.** 64 ± 7 nM

**Q.** What about the Kd [3] of the same molecule?
**A.** 232 ± 35 nM

**Q.** And the “Initial Degradation Rate” value [4]?
**A.** 2.06 %/min

**Q.** What does the source list for `Cc1ncsc1-c1ccc([C@H](C)NC(=O)[C@@H]2C[C@@H](O)CN2C(=O)[C@@H](NC(=O)c2csc(N3CCN(c4cc(-c5ccccc5O)nnc4N)CC3)n2)C(C)(C)C)cc1` [Compound 5, 2-(4-(3-Amino-6-(2-hydroxyphenyl)pyridazin-4-yl)piperazin-1-yl)-N-((S)-1-((2S,4R)-4-hydroxy-2-(((S)-1-(4-(4-methylthiazol-5-yl)phenyl)ethyl)carbamoyl)pyrrolidin-1-yl)-3,3-dimethyl-1-oxobutan-2-yl)thiazole-4-carboxamide]?
**A.** Kd [1]: 84.7 ± 5 nM; α (cooperativity, KLP/KLPT) [2]: 1.8; Kd [2]: 46.8 ± 6.7 nM; Kd [3]: 206 ± 34 nM; Initial Degradation Rate [4]: 1.9 %/min

**Q.** What does the source list for `Cc1ncsc1-c1ccc([C@H](C)NC(=O)[C@@H]2C[C@@H](O)CN2C(=O)[C@@H](NC(=O)CN2CCN(c3cc(-c4ccccc4O)nnc3N)CC2)C(C)(C)C)cc1` [Compound 6, (2S,4R)-1-((S)-2-(2-(4-(3-Amino-6-(2-hydroxyphenyl)pyridazin-4-yl)piperazin-1-yl)acetamido)-3,3-dimethylbutanoyl)-4-hydroxy-N-((S)-1-(4-(4-methylthiazol-5-yl)phenyl)ethyl)pyrrolidine-2-carboxamide, reference compound]?
**A.** Kd [1]: 11 ± 1 nM; α (cooperativity, KLP/KLPT) [2]: 2; Kd [2]: 5.6 ± 2 nM; Kd [3]: 14.2 ± 1.6 nM; Initial Degradation Rate [4]: 3.5 %/min

**Q.** Which Kd [1] does the source give for `Cc1ncsc1-c1ccc([C@H](C)NC(=O)[C@@H]2C[C@@H](O)CN2C(=O)[C@@H](NC(=O)Cc2ccnc(N3CCN(c4cc(-c5ccccc5O)nnc4N)CC3)c2)C(C)(C)C)cc1` [Compound 7, (2S,4R)-1-((S)-2-(2-(2-(4-(3-Amino-6-(2-hydroxyphenyl)pyridazin-4-yl)piperazin-1-yl)pyridin-4-yl)acetamido)-3,3-dimethylbutanoyl)-4-hydroxy-N-((S)-1-(4-(4-methylthiazol-5-yl)phenyl)ethyl)pyrrolidine-2-carboxamide] here?
**A.** 9 ± 2 nM

**Q.** And the “α (cooperativity, KLP/KLPT)” value [2]?
**A.** 0.11

**Q.** And the Kd [2]?
**A.** 80 ± 6 nM

**Q.** And the Kd [3]?
**A.** 46 ± 8.5 nM

**Q.** What about the “Initial Degradation Rate” value [4] of the same molecule?
**A.** 0.78 %/min

**Q.** How did the Kd [1] turn out when `Cc1ncsc1-c1ccc([C@H](C)NC(=O)[C@@H]2C[C@@H](O)CN2C(=O)[C@@H](NC(=O)CCc2ccnc(N3CCN(c4cc(-c5ccccc5O)nnc4N)CC3)c2)C(C)(C)C)cc1` [Compound 8, (2S,4R)-1-((S)-2-(3-(2-(4-(3-Amino-6-(2-hydroxyphenyl)pyridazin-4-yl)piperazin-1-yl)pyridin-4-yl)propanamido)-3,3-dimethylbutanoyl)-4-hydroxy-N-((S)-1-(4-(4-methylthiazol-5-yl)phenyl)ethyl)pyrrolidine-2-carboxamide] was run?
**A.** 7 ± 2 nM

**Q.** And the “α (cooperativity, KLP/KLPT)” value [2]?
**A.** 0.26

**Q.** What about the Kd [2] of the same molecule?
**A.** 27 ± 3 nM

**Q.** And the Kd [3]?
**A.** 49 ± 12 nM

**Q.** And the “Initial Degradation Rate” value [4]?
**A.** 1.34 %/min

**Q.** How did the Kd [1] turn out when `Cc1ncsc1-c1ccc([C@H](C)NC(=O)[C@@H]2C[C@@H](O)CN2C(=O)[C@@H](NC(=O)c2ccnc(N3CCN(c4cnnc(-c5ccccc5O)c4)CC3)c2)C(C)(C)C)cc1` [Compound 10, N-((S)-1-((2S,4R)-4-Hydroxy-2-(((S)-1-(4-(4-methylthiazol-5-yl)phenyl)ethyl)carbamoyl)pyrrolidin-1-yl)-3,3-dimethyl-1-oxobutan-2-yl)-2-(4-(6-(2-hydroxyphenyl)pyridazin-4-yl)piperazin-1-yl)isonicotinamide] was run?
**A.** 60 ± 5 nM

**Q.** What about the “α (cooperativity, KLP/KLPT)” value [2] of the same molecule?
**A.** 0.24

**Q.** And the Kd [2]?
**A.** 250 ± 30 nM

**Q.** And the Kd [3]?
**A.** 745 ± 134 nM

**Q.** And the “Initial Degradation Rate” value [4]?
**A.** 0.56 %/min

Reference: article PMC10344917, “Affinity and cooperativity modulate ternary complex formation to drive targeted protein degradation” (Nature Communications, 2023)
